PubChem BioAssay (NCI)
Several values for one entry are separate records, joined by “and”; a condition that tells them apart may be missing. Equal entries are not always repeated.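 Protocol summary: plate cells (96-well), add compound at 5 concentrations, incubate 48 h, interpolate endpoints linearly. The concentration for 50% growth inhibition is given as GI50. TGI: total growth inhibition.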

Columns and labels:
Assay in all cases: inhibition of tumour cell growth, NCI panel, 48 h
COLO 205 colon = test system: COLO 205 colon
PC-3 prostate = test system: PC-3 prostate
HT29 colon = test system: HT29 colon
IGROV1 ovarian = test system: IGROV1 ovarian
CAKI-1 renal = test system: CAKI-1 renal
HS 578T breast = test system: HS 578T breast
OVCAR-4 ovarian = test system: OVCAR-4 ovarian
MOLT-4 leukemia = test system: MOLT-4 leukemia
MALME-3M melanoma = test system: MALME-3M melanoma
NCI-H23 lung = test system: NCI-H23 lung

| Compound | GI50 (COLO 205 colon) | TGI (COLO 205 colon) | GI50 (PC-3 prostate) | TGI (PC-3 prostate) | GI50 (HT29 colon) | TGI (HT29 colon) | GI50 (IGROV1 ovarian) | TGI (IGROV1 ovarian) | GI50 (CAKI-1 renal) | TGI (CAKI-1 renal) | GI50 (HS 578T breast) | TGI (HS 578T breast) | GI50 (OVCAR-4 ovarian) | TGI (OVCAR-4 ovarian) | GI50 (MOLT-4 leukemia) | TGI (MOLT-4 leukemia) | GI50 (MALME-3M melanoma) | TGI (MALME-3M melanoma) | GI50 (NCI-H23 lung) | TGI (NCI-H23 lung) |
| --- | --- | --- | --- | --- | --- | --- | --- | --- | --- | --- | --- | --- | --- | --- | --- | --- | --- | --- | --- | --- |
| O=C1C=CC(=O)N1c1ccc2ccccc2c1 | 2.01 µM | 4.22 µM | 18.1 µM | 37.8 µM | 4.94 µM | 27.8 µM | 16.6 µM | 52 µM | 4.65 µM | 17.8 µM | 14.4 µM | 53.4 µM | 8.92 µM | 34.1 µM | 4.49 µM | 34.9 µM | 2.98 µM | 8.19 µM | 17.1 µM | 37.2 µM |
| C=CC(=O)N1CCN(c2nc(OC[C@@H]3CCCN3C)nc3c(F)c(-c4nc(N)cc(C)c4C(F)(F)F)c(Cl)cc23)[C@@H](C)C1 | 1.86 µM | 3.5 µM | 2.91 µM | 12 µM | 2.61 µM | 9.8 µM | 1.7 µM | 3.54 µM | 1.51 µM | 2.95 µM | 1.83 µM | 4.53 µM | 1.59 µM | 3 µM | 1.91 µM | 7.63 µM | 1.86 µM | 3.37 µM |  | 1.34 µM |
| O=C(Nc1ccc(Br)cc1)c1cc(Br)ccc1O | 1.66 µM and 1.71 µM | 3.1 µM and 3.25 µM | 0.973 µM and 2.69 µM | 12.7 µM and > 29 µM | 3.11 µM and 3.38 µM | 16 µM and 39 µM | 0.346 µM and 0.749 µM | 22.8 µM and 17 µM | 0.333 µM and 1.21 µM | 2.49 µM and 5.62 µM | 0.302 µM and 0.455 µM | 2.94 µM | 0.452 µM and 1.17 µM | > 100 µM | 0.683 µM and 0.799 µM | 3.2 µM and 3.89 µM | 0.284 µM and 0.48 µM | 1.57 µM and 4.2 µM | 0.345 µM and 0.467 µM | 2.06 µM and 4.34 µM |
| O=C1c2c[n+](Cc3ccccc3)ccc2-c2nc3ccccc3c3ccnc1c23 | 0.409 µM | 1.11 µM | 0.826 µM | 3.92 µM | 0.971 µM | 3.46 µM | 0.827 µM | 4.04 µM | 1.2 µM | 9.37 µM | 1.03 µM | 10.2 µM | 0.468 µM | 0.92 µM | 0.719 µM | 1.89 µM | 0.499 µM | 1.02 µM | 0.158 µM | 1.26 µM |
| O=C(NCCc1nccs1)c1cnc2c(S)cccc2c1 | 1.56 µM | 3.75 µM | 4.39 µM | 26.6 µM | 4.34 µM | 37 µM | 1.96 µM | 24.7 µM | 3.22 µM | 37.4 µM | 6.28 µM | 80.5 µM | 2.72 µM | 34 µM | 1.14 µM | > 100 µM | 4.03 µM | 52.4 µM | 3.91 µM | > 100 µM |
| COc1cc2c(cc1OCCCN1CCN(CCCOc3cc4c(cc3OC)C(=O)N3C[C@H](F)C[C@H]3C=N4)CC1)N=C[C@@H]1C[C@@H](F)CN1C2=O | 0.0373 µM | 0.193 µM | 0.0546 µM |  | 0.148 µM | > 37.2 µM | 0.0696 µM | 1.88 µM | 0.0683 µM | 2 µM | 0.0841 µM | 2.56 µM | 0.386 µM | 22.6 µM | < 0.018 µM | 1.68 µM | 0.0334 µM | 0.154 µM | 0.0255 µM | 0.209 µM |
| COc1cccc(C2=C(c3cn(C)c4c(C)cccc34)C(=O)NC2=O)c1 | > 25 µM | > 25 µM | > 18.3 µM | > 25 µM | > 19.6 µM | > 25 µM | > 25 µM | > 25 µM | > 14.1 µM | > 25 µM | 5.93 µM | > 25 µM | > 14.3 µM | > 25 µM | 16.3 µM | > 25 µM | > 25 µM | > 25 µM | > 25 µM | > 25 µM |
| CN(COC(=O)C(C)(C)C)c1nc(N(C)COC(=O)C(C)(C)C)nc(N(C)COC(=O)C(C)(C)C)n1 |  | 35.5 µM |  | > 100 µM |  | > 100 µM |  | > 100 µM |  | > 100 µM |  | > 100 µM |  | > 100 µM |  | > 100 µM |  | 98.5 µM |  | > 100 µM |
| Nc1ncnc2c1ncn2C1OC(F)(COS(N)(=O)=O)C(O)C1O (configuration not stated) | > 100 µM | > 100 µM | > 100 µM | > 100 µM | > 100 µM | > 100 µM | > 100 µM | > 100 µM | > 100 µM | > 100 µM | > 100 µM | > 100 µM | > 100 µM | > 100 µM | > 100 µM | > 100 µM | > 100 µM | > 100 µM | > 100 µM | > 100 µM |
| CCOC(=O)c1c(C)n(Cc2ccc(Cl)cc2Cl)c2c1cc(O)c1[nH]c(Cc3ccccc3)nc12 | 5.04 µM | 30.1 µM | 2.11 µM | 5.62 µM | 3.89 µM | 17.3 µM | 3.22 µM | 15.8 µM | 8.29 µM | 26.8 µM | 1.53 µM | 3.8 µM | 4.15 µM | 16.7 µM | 2.3 µM | 5.27 µM | 7.26 µM | 28.8 µM | 3.6 µM | 10.6 µM |
| N#C/C(=C\c1ccccn1)c1nc2ccccc2o1 | 44.9 µM | > 100 µM | 17.6 µM | 50.5 µM | 30.6 µM | 95.2 µM | 18.4 µM | > 100 µM | 35.1 µM | > 100 µM | 35.1 µM | > 100 µM | 17.3 µM | 34.2 µM | 24.6 µM | 82.6 µM | 25.2 µM | > 100 µM | 33.9 µM | > 100 µM |
| CC12CC(Br)(Br)C(=O)C3C1CCCC32 |  | 5.16 µM |  | 25.6 µM |  | 24.2 µM |  | 27.2 µM |  | 6.05 µM |  | 45.2 µM |  | 10.4 µM |  | 14.9 µM |  | 9.5 µM |  | 16.3 µM |
| O=c1oc2cc(O)ccc2cc1-c1nc2ccccc2o1 |  | 80.3 µM |  | > 100 µM |  | > 100 µM |  | > 100 µM |  | > 100 µM |  | > 100 µM |  | > 100 µM |  | > 100 µM |  | > 100 µM |  | > 100 µM |
| Nc1ncnc2occ(-c3ccc(NC(=O)Nc4cccc(C(F)(F)F)c4)cc3)c12 | 4.53 µM | 9.16 µM | 4.94 µM | 13.3 µM | 3.12 µM | 10.6 µM | 2.02 µM | 10.2 µM | 2.29 µM | 13 µM | 0.973 µM | 6.74 µM | 3.19 µM | 17.7 µM | 3.54 µM | 15.5 µM | 5.74 µM | 13.3 µM | 4.1 µM | 13.3 µM |
| COc1cccc2c1C(=O)c1c(O)c3c(c(O)c1C2=O)C[C@@](O)(C(=O)CO)C[C@@H]3OC1CC2C(OCN2CN2COC3C(C)OC(O[C@H]4C[C@](O)(C(=O)CO)Cc5c(O)c6c(c(O)c54)C(=O)c4c(OC)cccc4C6=O)CC32)C(C)O1 (some centres not stated) | 0.00664 µM | 0.0216 µM | 0.0107 µM | 0.0896 µM | 0.00717 µM | 0.115 µM | 0.0014 µM | 0.127 µM | 0.000878 µM | 0.00708 µM | 0.0394 µM | > 1 µM | 0.0222 µM | 0.0593 µM | 0.000203 µM | 0.00801 µM | 0.0149 µM | 0.0399 µM | 0.00477 µM | 0.0316 µM |
| O=[N+]([O-])c1cc2c(ccc3ccccc32)o1 | 0.268 µM | 1.04 µM | 1.85 µM | 14.5 µM | 0.307 µM | 1.8 µM | 0.703 µM | 5.56 µM | 0.31 µM | 3.06 µM | 1.4 µM | 5.28 µM | 1.76 µM | 11 µM | 0.47 µM | 73.9 µM | 0.175 µM | 0.368 µM | 0.331 µM | 2.03 µM |
| O=C1C2C3C=CC(C2C(=O)N1CN1CCOCC1)C1C2C(=O)N(CN4CCOCC4)C(=O)C2C31 (configuration not stated) |  | > 56.9 µM |  | > 100 µM |  | > 100 µM |  | > 94.6 µM |  | > 100 µM |  | > 100 µM |  | > 60.4 µM |  | 53.3 µM |  | > 100 µM |  | > 66.8 µM |
| O=NN(CC(=O)NNc1ccccc1)CC(=O)NNc1ccccc1 | 5.69 µM | > 59.2 µM | 5.64 µM | > 100 µM | > 100 µM | > 100 µM | > 64 µM | > 100 µM | 3.77 µM | > 100 µM | > 100 µM | > 100 µM |  | > 100 µM | 4.04 µM | > 100 µM | 42 µM | > 100 µM | > 100 µM | > 100 µM |
